These results are taken from PubChem BioAssay (NCI).

Some test systems named below: SK-OV-3 ovarian; HL-60(TB) leukemia; 786-0 renal; K-562 leukemia; SNB-19 CNS; TK-10 renal; BT-549 breast; SF-268 CNS; LOX IMVI melanoma; MDA-MB-231 breast; OVCAR-3 ovarian; UACC-257 melanoma; NCI-H522 lung; A549 NSCLC.
Common to all, as to test: inhibition of tumour cell growth, NCI panel, 48 h

The structures appear in SMILES notation. “And” between values parts separate entries of the source, which are not always exact repeats. Identical values can stand only once.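 Cells were grown in 96-well plates and exposed to each compound for 48 hours at five concentrations; endpoints were interpolated linearly between bracketing concentrations, or set to the highest concentration if not reached. The concentration for 50% growth inhibition is given as GI50. TGI denotes the concentration required for complete inhibition of growth.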

For `CC1(Cc2cc3c(cc2C2(c4ccc([N+](=O)[O-])cc4)OCCO2)OCO3)OCCO1`, the TGI with SK-OV-3 ovarian, in the test on HL-60(TB) leukemia, in the test on 786-0 renal, with K-562 leukemia, in the test with SNB-19 CNS and in the test on TK-10 renal was > 100 µM each time. The TGI is 98.9 µM in the test with BT-549 breast; > 100 µM in the test on SF-268 CNS; > 100 µM in the test on LOX IMVI melanoma; > 100 µM in the test with MDA-MB-231 breast; > 100 µM with OVCAR-3 ovarian; > 100 µM in the test on UACC-257 melanoma. The values for the TGI in the test on NCI-H522 lung and in the test on A549 NSCLC were 82.3 µM and > 100 µM, respectively.

For `C=CCN1C(=O)/C(=C/c2ccc(OC)cc2)N=C1SC1OC(COC(C)=O)C(OC(C)=O)C(OC(C)=O)C1OC(C)=O` (stereo not drawn), the TGI is 36 µM and > 100 µM in the test with SK-OV-3 ovarian; > 94 µM and 15.4 µM in the test on HL-60(TB) leukemia; > 100 µM in the test with 786-0 renal; > 100 µM with K-562 leukemia; > 100 µM in the test on SNB-19 CNS; 39.6 µM and > 100 µM in the test with TK-10 renal. The TGI in the test with BT-549 breast is 38.1 µM and 96.1 µM; in the test on LOX IMVI melanoma, > 100 µM; with MDA-MB-231 breast, 42.9 µM and > 100 µM; in the test with OVCAR-3 ovarian, 30 µM and > 100 µM; in the test on UACC-257 melanoma it was 45.9 µM and > 100 µM; in the test on NCI-H522 lung, > 100 µM. The TGI with A549 NSCLC is > 100 µM. The GI50 with HL-60(TB) leukemia was 11.5 µM and 2.9 µM; in the test with TK-10 renal it was 20.2 µM and > 100 µM; in the test on LOX IMVI melanoma it was 21.1 µM and 43.1 µM; in the test on MDA-MB-231 breast, 18.8 µM and 39.2 µM; in the test on OVCAR-3 ovarian, 13.5 µM and 58.2 µM; in the test with NCI-H522 lung, 5.2 µM and 16.4 µM.

As for `O=C(/C=C/c1ccc(O)cc1)c1cc(-c2cc(CCC(=O)c3ccc(O)cc3O)ccc2O)c(O)cc1O`, the TGI was 42.6 µM in the test with SK-OV-3 ovarian; > 50 µM in the test on HL-60(TB) leukemia; > 50 µM in the test on 786-0 renal; 48.4 µM in the test with K-562 leukemia; > 50 µM in the test with SNB-19 CNS; > 50 µM in the test with TK-10 renal. For the same compound, the TGI with BT-549 breast, with SF-268 CNS, in the test on LOX IMVI melanoma, in the test on MDA-MB-231 breast, in the test with OVCAR-3 ovarian and with UACC-257 melanoma was > 50 µM each time. For the same compound, the TGI in the test with NCI-H522 lung and in the test on A549 NSCLC was > 50 µM in each case.

Regarding `N#CCN1CCN(CC#N)CCN(CC#N)CCN(CC#N)CC1`, the TGI in the test on SK-OV-3 ovarian, with HL-60(TB) leukemia, with 786-0 renal, in the test with K-562 leukemia, in the test with SNB-19 CNS and in the test on TK-10 renal was > 100 µM each time. Also, the TGI in the test with BT-549 breast, in the test on SF-268 CNS, in the test with LOX IMVI melanoma, with MDA-MB-231 breast, in the test on OVCAR-3 ovarian and in the test on UACC-257 melanoma was > 100 µM in each case. Also, the TGI with NCI-H522 lung and in the test on A549 NSCLC was > 100 µM throughout.

For the compound `CC(C)(C)OC(=O)NC(Cc1ccc(OCc2ccccc2)cn1)C(=O)O` (stereo not drawn), the TGI with HL-60(TB) leukemia, in the test with 786-0 renal, in the test with K-562 leukemia, with SNB-19 CNS, in the test on TK-10 renal and in the test with BT-549 breast was > 100 µM each time. The TGI in the test on SF-268 CNS, in the test with LOX IMVI melanoma, in the test on MDA-MB-231 breast, in the test on OVCAR-3 ovarian, in the test with UACC-257 melanoma and in the test on NCI-H522 lung was > 100 µM in each case. Further, in the test on A549 NSCLC, the TGI is > 100 µM.

Turning to `CC(=O)c1sc2n(C)c(=O)c3ccccc3[n+]2c1C`, the TGI in the test on SK-OV-3 ovarian, in the test with HL-60(TB) leukemia, in the test on 786-0 renal, in the test with K-562 leukemia, with SNB-19 CNS and in the test with TK-10 renal was > 100 µM in each case. For the same compound, the TGI with BT-549 breast, with SF-268 CNS, in the test with LOX IMVI melanoma, in the test with MDA-MB-231 breast, in the test on OVCAR-3 ovarian and in the test on UACC-257 melanoma was > 100 µM in each case. The TGI with NCI-H522 lung and in the test with A549 NSCLC was > 100 µM in each case.

Consider `C=C1C(=O)OC2/C=C(\C)CC/C=C(\C)CC(OC(=O)/C(=C/CO)CO)[C@@H]12` (stereo partly drawn), for which the TGI was > 100 µM in the test with SK-OV-3 ovarian; 12.6 µM in the test on HL-60(TB) leukemia; 11.5 µM in the test with 786-0 renal; 9.21 µM in the test with K-562 leukemia; > 85.7 µM in the test on SNB-19 CNS; 15.8 µM in the test with TK-10 renal. Further, the TGI with BT-549 breast turned out to be 26.5 µM; in the test on SF-268 CNS, 45 µM; in the test on LOX IMVI melanoma it was 31.1 µM; in the test with MDA-MB-231 breast, 28.2 µM; with OVCAR-3 ovarian, 18.4 µM; in the test on UACC-257 melanoma, 24.2 µM. The TGI was 3.5 µM in the test with NCI-H522 lung and 57.3 µM with A549 NSCLC.

Turning to `O=C(/N=C1/OC(CN2CCOCC2)CN1C(=O)Nc1ccccc1)Nc1ccccc1` (stereo not drawn), the TGI with SK-OV-3 ovarian, with HL-60(TB) leukemia, in the test on 786-0 renal, with K-562 leukemia, in the test with SNB-19 CNS and in the test with TK-10 renal was > 100 µM throughout. Further, the TGI with BT-549 breast, in the test on SF-268 CNS, in the test with LOX IMVI melanoma, in the test on MDA-MB-231 breast, in the test on UACC-257 melanoma and with NCI-H522 lung was > 100 µM each time. For the same compound, the TGI in the test with A549 NSCLC is > 100 µM.

With `Cc1ncc([N+](=O)[O-])n1CCNC(=O)Cn1ccnc1[N+](=O)[O-]`, the TGI in the test with SK-OV-3 ovarian, in the test on HL-60(TB) leukemia, in the test on 786-0 renal, with K-562 leukemia, in the test on SNB-19 CNS and in the test with TK-10 renal was > 100 µM each time. The TGI in the test with BT-549 breast, in the test with SF-268 CNS, in the test on MDA-MB-231 breast, in the test on OVCAR-3 ovarian, in the test with UACC-257 melanoma and with NCI-H522 lung was > 100 µM in each case. In addition, in the test on A549 NSCLC, the TGI was > 100 µM.
